Laboratory results: patent US9688760B2, “Anti-leukocyte adhesion for the mitigation of potential adverse events caused by CD3-specific binding domains” (AMGEN RESEARCH (MUNICH) GMBH, priority 2013, dated 2017)

Assays:
HUVEC = assay: In vitro flow chamber: T cell-rolling and adhesion on HUVEC, short-term conditions; format: cell-based, human
Protocol: Human brain microvascular endothelial cells (HBMEC) (#1000, Sciencell Research Laboratories) or human umbilical vein endothelial cells (HUVEC) (#C-12200, Promocell) were used as endothelial cell-model. Cryopreserved HBMEC at passage 1 (>5×10^5 cells/ml) were first cultivated in fibronectin-coated Nunclon-treated 75 cm^2 cell culture flasks (#156499, Nunc) at 37° C. and 5% CO2 in a Heraeus Cytoperm 2 (Thermo Scientific) according to the manufacturer's instructions. Sub-cultivation of HBMEC was done with the Detach Kit (#C-41200, Promocell) consisting of HEPES-buffered balanced salt solution (#C-40000, Promocell), trypsin-EDTA solution (0.04%/0.03%) (#C-41000, Promocell) and trypsin neutralization solution (TNS, #C-41100, Promocell). Briefly, the medium was aspirated from the HBMEC-layer and cells were washed with 2 ml of HEPES-buffered balanced salt solution. Addition of 2 ml of trypsin-EDTA solution for 1-5 min at room temperature led to detachment of HBMEC from the flask bottom. Inactivation of trypsin-EDTA solution was performed by addition of 2 ml of trypsin neutralization solution to the cell suspension. Cells were centrifuged at 300 g for 4 min in a Heraeus Megafuge 40 (Thermo Scientific) and seeded at a cell density of 5×10^5 cells per gelatin-coated 75 cm^2 cell culture flask (#L7230, Biochrom). […]

[1] = test system: ICAM-1 and P-selectin on HUVEC; assay: Immunofluorescence staining of HUVEC after T cell-rolling; format: cell-based, human; settings: T cells pre-incubated with 10 ng/ml Blinatumomab vs untouched T cells
Protocol: After rolling and adhesion of T cells on HBMEC or HUVEC under flow conditions, endothelial cells were fixed using 150 μl of 4% paraformaldehyde solution (#P-6148, Sigma-Aldrich) for 30 min at 4° C. μ-slides were rinsed with 150 μl of D-PBS and subjected to immunofluorescence staining. HBMEC were first blocked with 150 μl of avidin blocking reagent (#PHA-70871, reagent 1, Dianova) for 10 min at room temperature, washed with 150 μl of D-PBS followed by incubation with 150 μl of biotin blocking reagent (#PHA-70871, reagent 2, Dianova). All following staining procedures were performed in 150 μl of D-PBS with 5% FBS at room temperature in the dark, and washing steps were done in 150 μl of D-PBS. μ-slides were incubated with 5 μg/ml polyclonal rabbit anti-human VCAM-1 (#106777, abcam) for 1 h. After washing, 20 μg/ml goat anti-rabbit IgG-DyLight350 was added for 1 h followed by washing and incubation with 15 μg/ml mouse anti-human P-selectin IgG1 (#BBA30, R&D Systems) for 2 h. After washing, goat anti-mouse IgG-Alexa488 (1:100) (#A10680, Invitrogen) was added for 1 h. […] VCAM-1 staining was monitored with a CFL EPI-FL Filter Block UV-2A (#MBE41200, Nikon), P-selectin staining with a CFL EPI-FL Filter Block GFP-B (#MBE44740, Nikon), and ICAM-1 staining with an EPI-FL Filter Block Cy3 (#MXU96213, Nikon). […]

Blinatumomab: recombinant CD19×CD3 bispecific scFv antibody consisting of four immunoglobulin variable domains assembled into a single polypeptide chain
mean rolling velocity±SD (HUVEC; T cells pre-incubated with 10 ng/ml Blinatumomab for 45 min, short-term (45 sec), 1 dyn/cm^2, control −AMG 103 283±82): 237±45 μm/sec | increase of number of T cells firmly adhering to HUVEC (HUVEC; pre-incubation with 10 ng/ml Blinatumomab, short-term conditions, vs −AMG 103): 2.6 fold | surface expression of adhesion molecules on HUVEC [1]: increased surface expression of adhesion molecules ICAM-1 and P-selectin
